In paper PMC3062530, “A Novel Mechanism of Programmed Cell Death in Bacteria by Toxin–Antitoxin Systems Corrupts Peptidoglycan Synthesis” (PLoS Biology, 2011):

Columns and labels:
[1] = biological target: T1, MurA (Escherichia coli, UniProt P0A749); assay: coupled phosphate-release fluorescence assay (7-methylguanosine / purine nucleoside phosphorylase), global fit; type: biochemical; settings: 1 mM phosphoenolpyruvate, pH 7.5, 50 mM NaCl; global fit with UNAG-3P inhibition
T1 construct: purified enzyme
T1 sequence (P0A749 whole entry): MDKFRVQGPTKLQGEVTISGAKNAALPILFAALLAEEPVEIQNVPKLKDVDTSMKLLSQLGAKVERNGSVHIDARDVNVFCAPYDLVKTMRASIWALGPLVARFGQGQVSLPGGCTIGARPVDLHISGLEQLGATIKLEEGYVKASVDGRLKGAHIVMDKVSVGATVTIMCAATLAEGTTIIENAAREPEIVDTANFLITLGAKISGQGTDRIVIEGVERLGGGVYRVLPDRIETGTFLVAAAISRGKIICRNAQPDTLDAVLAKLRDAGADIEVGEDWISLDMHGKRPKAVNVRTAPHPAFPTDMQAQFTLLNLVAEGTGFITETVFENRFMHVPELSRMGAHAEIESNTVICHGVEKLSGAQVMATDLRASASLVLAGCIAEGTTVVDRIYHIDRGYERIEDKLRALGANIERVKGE

[2] = biological target: T1, MurA; assay: as above; type: biochemical; settings: competitive with UNAG; 1 mM phosphoenolpyruvate, pH 7.5, 50 mM NaCl

SMILES | Km [1] | Ki [2]
CC(=O)N[C@H]1[C@@H](OP(=O)(O)OP(=O)(O)OC[C@H]2O[C@@H](n3ccc(=O)[nH]c3=O)[C@H](O)[C@@H]2O)O[C@H](CO)[C@@H](O)[C@@H]1O [UNAG] | 15 µM | –
CC(=O)N[C@H]1[C@@H](OP(=O)(O)OP(=O)(O)OC[C@H]2O[C@@H](n3ccc(=O)[nH]c3=O)[C@H](O)[C@@H]2O)O[C@H](CO)[C@@H](O)[C@@H]1OP(=O)(O)O [UNAG-3P] | – | 7 µM
